Experimental findings from patent US12227500B2, “Substituted pyrrolo[2,3-b]pyridines for suppressing toxic endoplasmic reticulum stress” (THE TRUSTEES OF COLUMBIA UNIVERSITY IN THE CITY OF NEW YORK, priority 2018, dated 2025) are described below.

Test [1] concerns panel of 60 human kinases. In words: Radiolabeled ATP kinase assay, panel of 60 kinases (Table S5). Conditions: 0.5 μM. The class given is biochemical. The gist of the method:
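Cell-free radiolabeled-ATP kinase assays across a panel of 60 kinases; each compound tested at 0.1 μM and 0.5 μM for inhibition.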

The target in test [2] is T1, panel of 371 human kinases (Homo sapiens, UniProt Q8IW41).
T1 construct: purchased Reaction Biology Corp
In words: Radiolabeled ATP kinase assay, panel of 371 kinases (Table S6). The class given is biochemical. The conditions noted are these: MAPKAPK5/PRAK; 0.1 μM; 10 μM ATP; read-out: % Enzyme Activity (relative to DMSO controls). From the text:
(§1) ; FIG. 38C). […]. Further targeted analyses, such as genetic knock-down or knock-out, may be warranted to parse the role of these additional kinases in our model of neurodegeneration.

Test [3] has as its target T2, panel of 371 human kinases (Homo sapiens, UniProt Q08881).
T2 construct: purchased Reaction Biology Corp
The test is described as above. The class given is biochemical. The conditions noted are these: ITK; 0.1 μM; 10 μM ATP; read-out: % Enzyme Activity (relative to DMSO controls).
Description: as §1

Test [4] deals with T3, panel of 371 human kinases (Homo sapiens, UniProt P07948).
T3 construct: purchased Reaction Biology Corp
The description is as above. The conditions noted are these: LYN; 0.1 μM; 10 μM ATP; read-out: % Enzyme Activity (relative to DMSO controls). The class given is biochemical.
Description: as §1

Test [5] addresses T4, panel of 371 human kinases (Homo sapiens, UniProt P15056).
T4 construct: purchased Reaction Biology Corp
The test is described as above. The class given is biochemical. The conditions noted are these: BRAF; 0.1 μM; 10 μM ATP; read-out: % Enzyme Activity (relative to DMSO controls).
Description: as §1

In test [6] the target is T5, panel of 371 human kinases (Homo sapiens, UniProt Q13554).
T5 construct: purchased Reaction Biology Corp
Described as above. The class given is biochemical. The conditions noted are these: CAMK2b; 0.1 μM; 10 μM ATP; read-out: % Enzyme Activity (relative to DMSO controls).
Description: as §1

For test [7], the target named is T6, panel of 371 human kinases (Homo sapiens, UniProt P30291).
T6 construct: purchased Reaction Biology Corp
Described as above. The class given is biochemical. The conditions noted are these: WEE1; 0.1 μM; 10 μM ATP; read-out: % Enzyme Activity (relative to DMSO controls).
Description: as §1

Test [8] deals with T7, panel of 371 human kinases (Homo sapiens, UniProt Q9UBS0).
T7 construct: purchased Reaction Biology Corp
The description is as above. Conditions: p70S6Kb/RPS6KB2; 0.1 μM; 10 μM ATP; read-out: % Enzyme Activity (relative to DMSO controls). The class given is biochemical.
Description: as §1

In test [9] the target is T8, panel of 371 human kinases (Homo sapiens, UniProt P15735).
T8 construct: purchased Reaction Biology Corp
The description is as above. The class given is biochemical. Conditions: PHKg2; 0.1 μM; 10 μM ATP; read-out: % Enzyme Activity (relative to DMSO controls).
Description: as §1

The target of test [10] is T9, panel of 371 human kinases (Homo sapiens, UniProt P07333).
T9 construct: purchased Reaction Biology Corp
Described as above. The class given is biochemical. The conditions noted are these: FMS; 0.1 μM; 10 μM ATP; read-out: % Enzyme Activity (relative to DMSO controls).
Description: as §1

Test [11] concerns the target T10, panel of 371 human kinases (Homo sapiens, UniProt P27448).
T10 construct: purchased Reaction Biology Corp
The description is as above. Conditions: MARK3; 0.1 μM; 10 μM ATP; read-out: % Enzyme Activity (relative to DMSO controls). The class given is biochemical.
Description: as §1

Test [12] addresses T11, panel of 371 human kinases (Homo sapiens, UniProt O75460).
T11 construct: purchased Reaction Biology Corp
The description is as above. The class given is biochemical. The conditions noted are these: ERN1/IRE1; 0.1 μM; 10 μM ATP; read-out: % Enzyme Activity (relative to DMSO controls).
Description: as §1

Test [13] has as its target T12, panel of 371 human kinases (Homo sapiens, UniProt Q9H3Y6).
T12 construct: purchased Reaction Biology Corp
Described as above. The class given is biochemical. Conditions: SRMS; 0.1 μM; 10 μM ATP; read-out: % Enzyme Activity (relative to DMSO controls).
Description: as §1

Test [14] has as its target T13, panel of 371 human kinases (Homo sapiens, UniProt P51617).
T13 construct: purchased Reaction Biology Corp
The test is described as above. Conditions: IRAK1; 0.1 μM; 10 μM ATP; read-out: % Enzyme Activity (relative to DMSO controls). The class given is biochemical.
Description: as §1

The target in test [15] is T14, panel of 371 human kinases (Homo sapiens, UniProt Q9H2K8).
T14 construct: purchased Reaction Biology Corp
The test is described as above. Conditions: TAOK3/JIK; 0.1 μM; 10 μM ATP; read-out: % Enzyme Activity (relative to DMSO controls). The class given is biochemical.
Description: as §1

Test [16] has as its target T15, panel of 371 human kinases (Homo sapiens, UniProt Q9BXA7).
T15 construct: purchased Reaction Biology Corp
The description is as above. The class given is biochemical. The conditions noted are these: STK22D/TSSK1; 0.1 μM; 10 μM ATP; read-out: % Enzyme Activity (relative to DMSO controls).
Description: as §1

In test [17] the target is T16, panel of 371 human kinases (Homo sapiens, UniProt Q9H4A3).
T16 construct: purchased Reaction Biology Corp
Described as above. The class given is biochemical. The conditions noted are these: WNK1; 0.1 μM; 10 μM ATP; read-out: % Enzyme Activity (relative to DMSO controls).
Description: as §1

In test [18] the target is T17, panel of 371 human kinases (Homo sapiens, UniProt Q86Y07).
T17 construct: purchased Reaction Biology Corp
Described as above. The class given is biochemical. Conditions: VRK2; 0.1 μM; 10 μM ATP; read-out: % Enzyme Activity (relative to DMSO controls).
Description: as §1

In test [19] the target is T18, panel of 371 human kinases (Homo sapiens, UniProt Q15303).
T18 construct: purchased Reaction Biology Corp
The description is as above. The class given is biochemical. Conditions: ERBB4/HER4; 0.1 μM; 10 μM ATP; read-out: % Enzyme Activity (relative to DMSO controls).
Description: as §1

Test [20] concerns the target T19, panel of 371 human kinases (Homo sapiens, UniProt P34947).
T19 construct: purchased Reaction Biology Corp
The description is as above. The conditions noted are these: GRK5; 0.1 μM; 10 μM ATP; read-out: % Enzyme Activity (relative to DMSO controls). The class given is biochemical.
Description: as §1

The next test has as its system N9 microglial cells. Kind of test: TNFα release by LPS-stimulated microglia (ELISA). The class given is cell-based, mouse. The conditions noted are these: for TNFα secretion in LPS-stimulated microglia: LPS 0.1-5 μM, 24 h. The protocol:
To model microglial activation in vitro, we stimulated mouse N9 microglial cells with increasing concentrations of E. coli-derived lipopolysaccharides (LPS) (0.1-5 μM) to measure release of the pro-inflammatory cytokine TNFα into cell culture media.
Cultures were maintained in DMEM containing FBS (10%, Life Technologies) and Glutamax (1%, Life Technologies). […] N9 cells remaining in the culture dishes were treated with AlamarBlue (Thermo Fisher) to assess viability. 5 μL AlamarBlue was added to each well (containing 50 μL culture media) and incubated for 4 h at 37°.
In general terms: In an ELISA, binding on a coated surface is turned into a signal by an enzyme label.

T16 sequence (Q9H4A3 whole entry): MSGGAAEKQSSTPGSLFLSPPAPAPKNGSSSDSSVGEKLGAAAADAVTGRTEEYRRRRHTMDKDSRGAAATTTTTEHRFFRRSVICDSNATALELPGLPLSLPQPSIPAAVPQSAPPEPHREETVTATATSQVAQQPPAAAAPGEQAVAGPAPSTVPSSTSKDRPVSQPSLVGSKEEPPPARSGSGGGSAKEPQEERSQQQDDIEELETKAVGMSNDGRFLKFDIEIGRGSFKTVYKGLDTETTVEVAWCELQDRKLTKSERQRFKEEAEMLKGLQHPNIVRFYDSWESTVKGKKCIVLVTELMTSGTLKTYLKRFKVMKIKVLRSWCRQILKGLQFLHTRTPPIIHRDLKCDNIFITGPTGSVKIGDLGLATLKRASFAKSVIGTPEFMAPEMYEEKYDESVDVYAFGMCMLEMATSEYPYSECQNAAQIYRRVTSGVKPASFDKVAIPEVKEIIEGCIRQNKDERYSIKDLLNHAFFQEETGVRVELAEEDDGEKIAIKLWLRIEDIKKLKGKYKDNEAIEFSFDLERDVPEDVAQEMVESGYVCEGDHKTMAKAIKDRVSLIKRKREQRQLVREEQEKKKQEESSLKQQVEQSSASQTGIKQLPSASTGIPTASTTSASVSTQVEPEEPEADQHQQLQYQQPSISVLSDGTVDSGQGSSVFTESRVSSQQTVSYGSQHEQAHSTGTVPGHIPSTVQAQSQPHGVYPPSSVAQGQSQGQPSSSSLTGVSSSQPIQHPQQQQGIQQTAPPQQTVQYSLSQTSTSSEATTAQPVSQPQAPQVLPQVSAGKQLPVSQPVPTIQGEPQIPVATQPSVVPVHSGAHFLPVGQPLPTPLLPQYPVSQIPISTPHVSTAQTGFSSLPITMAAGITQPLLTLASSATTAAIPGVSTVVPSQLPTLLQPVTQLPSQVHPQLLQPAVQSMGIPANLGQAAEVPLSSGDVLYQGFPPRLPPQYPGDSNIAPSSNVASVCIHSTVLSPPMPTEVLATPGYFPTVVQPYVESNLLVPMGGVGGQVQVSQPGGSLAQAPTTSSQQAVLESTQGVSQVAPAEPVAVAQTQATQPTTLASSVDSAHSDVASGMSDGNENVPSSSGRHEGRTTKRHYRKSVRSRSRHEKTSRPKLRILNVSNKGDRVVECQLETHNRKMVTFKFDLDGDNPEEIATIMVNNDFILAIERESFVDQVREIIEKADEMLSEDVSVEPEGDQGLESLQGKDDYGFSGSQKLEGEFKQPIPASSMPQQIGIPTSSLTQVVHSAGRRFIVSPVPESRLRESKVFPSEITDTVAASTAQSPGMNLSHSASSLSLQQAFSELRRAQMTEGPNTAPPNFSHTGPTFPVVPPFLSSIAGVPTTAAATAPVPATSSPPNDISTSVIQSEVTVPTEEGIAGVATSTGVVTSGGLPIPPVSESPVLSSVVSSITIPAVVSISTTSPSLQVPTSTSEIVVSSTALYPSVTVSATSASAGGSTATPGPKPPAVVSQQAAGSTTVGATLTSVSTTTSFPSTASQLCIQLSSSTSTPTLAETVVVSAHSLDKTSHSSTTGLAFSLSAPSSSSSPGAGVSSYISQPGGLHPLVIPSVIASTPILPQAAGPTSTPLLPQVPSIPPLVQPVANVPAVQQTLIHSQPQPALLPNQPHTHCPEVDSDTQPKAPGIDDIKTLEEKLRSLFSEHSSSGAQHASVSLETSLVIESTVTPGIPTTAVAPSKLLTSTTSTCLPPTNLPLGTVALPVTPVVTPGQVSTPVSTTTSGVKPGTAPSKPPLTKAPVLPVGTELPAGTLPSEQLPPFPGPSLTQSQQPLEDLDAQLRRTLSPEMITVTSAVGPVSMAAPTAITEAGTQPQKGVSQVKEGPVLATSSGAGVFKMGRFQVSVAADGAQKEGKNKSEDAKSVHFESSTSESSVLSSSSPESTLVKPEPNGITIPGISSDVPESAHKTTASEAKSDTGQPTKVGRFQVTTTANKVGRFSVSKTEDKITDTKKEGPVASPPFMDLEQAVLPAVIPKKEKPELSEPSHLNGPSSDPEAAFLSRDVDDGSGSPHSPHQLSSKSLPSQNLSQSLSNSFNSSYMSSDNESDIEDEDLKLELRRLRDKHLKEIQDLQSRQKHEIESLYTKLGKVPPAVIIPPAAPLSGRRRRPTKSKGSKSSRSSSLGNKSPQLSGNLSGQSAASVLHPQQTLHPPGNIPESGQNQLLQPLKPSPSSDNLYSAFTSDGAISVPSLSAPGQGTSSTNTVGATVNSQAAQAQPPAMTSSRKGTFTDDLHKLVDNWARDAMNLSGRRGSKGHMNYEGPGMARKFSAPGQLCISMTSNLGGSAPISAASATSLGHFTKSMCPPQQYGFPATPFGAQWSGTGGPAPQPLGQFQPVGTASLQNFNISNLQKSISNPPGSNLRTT
T14 sequence (Q9H2K8 whole entry): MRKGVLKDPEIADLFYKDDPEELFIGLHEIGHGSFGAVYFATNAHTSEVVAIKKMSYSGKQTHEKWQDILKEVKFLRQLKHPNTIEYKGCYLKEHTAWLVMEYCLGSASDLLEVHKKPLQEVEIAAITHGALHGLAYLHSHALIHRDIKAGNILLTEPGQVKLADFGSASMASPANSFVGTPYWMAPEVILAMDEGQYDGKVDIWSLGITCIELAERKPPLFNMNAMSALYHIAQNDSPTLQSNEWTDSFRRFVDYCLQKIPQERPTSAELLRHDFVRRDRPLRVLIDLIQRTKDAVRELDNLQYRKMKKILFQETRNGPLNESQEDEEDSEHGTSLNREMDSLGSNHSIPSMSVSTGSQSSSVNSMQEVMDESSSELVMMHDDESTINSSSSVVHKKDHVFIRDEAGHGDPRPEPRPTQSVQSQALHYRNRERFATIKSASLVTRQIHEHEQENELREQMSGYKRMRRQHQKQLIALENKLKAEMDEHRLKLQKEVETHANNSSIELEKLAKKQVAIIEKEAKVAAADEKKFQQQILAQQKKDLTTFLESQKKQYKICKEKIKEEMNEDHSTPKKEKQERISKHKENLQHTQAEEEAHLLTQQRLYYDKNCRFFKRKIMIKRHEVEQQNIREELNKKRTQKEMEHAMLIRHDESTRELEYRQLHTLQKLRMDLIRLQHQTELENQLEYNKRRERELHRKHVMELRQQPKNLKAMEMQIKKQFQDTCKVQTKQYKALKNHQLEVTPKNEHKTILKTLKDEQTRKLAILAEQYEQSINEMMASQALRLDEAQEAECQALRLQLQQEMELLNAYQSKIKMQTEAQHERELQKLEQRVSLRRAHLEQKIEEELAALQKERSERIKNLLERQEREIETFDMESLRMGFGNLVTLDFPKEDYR
T18 sequence (Q15303 26-1308): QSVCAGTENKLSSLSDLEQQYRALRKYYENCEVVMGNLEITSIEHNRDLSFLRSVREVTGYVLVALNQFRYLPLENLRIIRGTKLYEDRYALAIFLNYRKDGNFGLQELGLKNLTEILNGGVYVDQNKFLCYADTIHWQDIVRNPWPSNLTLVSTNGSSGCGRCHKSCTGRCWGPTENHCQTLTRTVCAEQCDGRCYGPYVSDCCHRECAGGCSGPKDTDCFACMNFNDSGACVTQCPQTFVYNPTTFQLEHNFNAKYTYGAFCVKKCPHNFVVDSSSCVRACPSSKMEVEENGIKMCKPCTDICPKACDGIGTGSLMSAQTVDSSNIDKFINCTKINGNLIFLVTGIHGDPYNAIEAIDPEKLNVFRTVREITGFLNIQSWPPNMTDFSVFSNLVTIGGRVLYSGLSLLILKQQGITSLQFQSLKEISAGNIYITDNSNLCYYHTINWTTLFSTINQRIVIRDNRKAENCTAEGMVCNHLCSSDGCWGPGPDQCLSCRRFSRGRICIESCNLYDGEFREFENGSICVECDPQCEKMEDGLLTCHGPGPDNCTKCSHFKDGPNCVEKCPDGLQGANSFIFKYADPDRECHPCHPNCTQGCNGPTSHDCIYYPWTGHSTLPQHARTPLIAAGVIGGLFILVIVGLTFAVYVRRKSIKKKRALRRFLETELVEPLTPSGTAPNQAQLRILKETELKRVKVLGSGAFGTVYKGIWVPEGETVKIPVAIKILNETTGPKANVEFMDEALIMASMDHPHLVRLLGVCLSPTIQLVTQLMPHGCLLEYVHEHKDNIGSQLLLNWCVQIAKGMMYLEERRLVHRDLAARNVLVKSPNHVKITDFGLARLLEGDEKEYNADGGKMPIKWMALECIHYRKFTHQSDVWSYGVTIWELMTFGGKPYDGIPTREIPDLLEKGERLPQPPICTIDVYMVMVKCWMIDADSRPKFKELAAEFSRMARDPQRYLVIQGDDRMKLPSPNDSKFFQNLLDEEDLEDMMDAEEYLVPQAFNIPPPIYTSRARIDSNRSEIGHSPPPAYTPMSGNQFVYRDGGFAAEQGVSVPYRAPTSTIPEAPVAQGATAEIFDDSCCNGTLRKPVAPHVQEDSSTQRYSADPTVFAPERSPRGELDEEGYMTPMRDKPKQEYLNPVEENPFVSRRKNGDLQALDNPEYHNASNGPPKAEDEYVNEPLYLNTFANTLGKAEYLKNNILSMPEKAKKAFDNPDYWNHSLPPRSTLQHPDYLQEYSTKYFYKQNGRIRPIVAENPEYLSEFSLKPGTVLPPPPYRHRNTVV
T8 sequence (P15735 whole entry): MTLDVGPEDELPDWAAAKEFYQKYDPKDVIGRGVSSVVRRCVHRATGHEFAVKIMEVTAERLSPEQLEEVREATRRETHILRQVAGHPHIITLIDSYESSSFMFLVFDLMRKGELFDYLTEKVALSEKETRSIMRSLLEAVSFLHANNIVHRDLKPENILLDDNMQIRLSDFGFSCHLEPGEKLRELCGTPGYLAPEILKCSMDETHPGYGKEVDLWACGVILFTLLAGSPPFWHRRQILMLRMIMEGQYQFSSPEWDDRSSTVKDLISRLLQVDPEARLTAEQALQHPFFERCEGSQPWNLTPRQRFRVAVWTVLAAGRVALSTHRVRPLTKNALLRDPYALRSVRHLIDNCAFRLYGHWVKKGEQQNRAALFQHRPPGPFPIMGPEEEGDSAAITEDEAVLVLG

Regarding `CN1CCN(Cc2ccc(-c3cnc4[nH]cc(-c5ccc6[nH]ccc6c5)c4c3)cc2)CC1` [Compound 1, 3-(1H-Indol-5-yl)-5-(4-((4-methylpiperazin-1-yl)methyl)phenyl)-1H-pyrrolo[2,3-b]pyridine, reference compound], the “number of the 60 kinases strongly inhibited (<20% residual activity)” value in test [1] stood at 27. The remaining activity at 0.1 µM in [2] was 78.5%; in test [3], 101%; in test [4], 90.3%; in test [5], 105%; in test [6], 95.5%; in test [7] it was 114%. Also, the remaining activity at 0.1 µM in [8] came out at 107%; in [9] it was 86%; in test [10], 85.4%; in test [11] it was 83.2%; in test [12], 107%; in [13] it was 104%. The remaining activity at 0.1 µM amounted to 86.2% in [14]; 87.3% in test [15]; 87.2% in test [16]; 117% in [17]; 99.8% in test [18]; 104% in test [19]. Moreover, in test [20], the remaining activity at 0.1 µM is 98.2%. The “TNFα secretion in LPS-stimulated microglia” value with N9 microglial cells was “significantly and dose-dependently decreased TNFα secretion”.
With `CN1CCN(Cc2ccc(-c3cnc4[nH]cc(-c5cccc(Cl)c5)c4c3)cc2)CC1` [Compound 7ad, 3-(3-Chlorophenyl)-5-(4-((4-methylpiperazin-1-yl)methyl)phenyl)-1H-pyrrolo[2,3-b]pyridine], the “number of the 60 kinases strongly inhibited (<20% residual activity)” value in test [1] stood at 12.
For the molecule `OCCN1CCN(Cc2ccc(-c3cnc4[nH]cc(-c5cccc(Cl)c5)c4c3)cc2)CC1` [Compound 12k, 2-(4-(4-(3-(3-Chlorophenyl)-1H-pyrrolo[2,3-b]pyridin-5-yl)benzyl)piperazin-1-yl)ethan-1-ol], the remaining activity at 0.1 µM in [2] was 84.4%; in test [3] it was 102%; in test [4], 99.3%; in test [5], 98%; in test [6] it was 92.2%; in [7] it was 86.6%. Besides, the remaining activity at 0.1 µM in test [8] was 95%; in test [9], 95.2%; in test [10], 26.8%; in test [11], 46.6%; in test [12] it was 98.9%; in test [13], 103%. The remaining activity at 0.1 µM in [14] was 73.2%; in [15], 79.8%; in [16], 75.2%; in test [17] it was 100%; in test [18] it was 98.6%; in [19], 97.2%. In addition, the remaining activity at 0.1 µM in test [20] was determined as 93.3%. For the same molecule, the “potency in TNFα release assay relative to compound 1 (times less potent)” value with N9 microglial cells is listed as approximately 5 ×. In addition, the “TNFα secretion in LPS-stimulated microglia” value in the test on N9 microglial cells is listed as “significantly decreased TNFα secretion”.
